From ChEMBL document CHEMBL2380215, “Development of cyclic peptomer inhibitors targeting the polo-box domain of polo-like kinase 1” (Bioorg Med Chem, 2013)
The source made the active and inactive calls. No cut-off for these calls is given here.

Assays:
[1] = target: Serine/threonine-protein kinase PLK3 (Homo sapiens) (UniProt Q9H4B4); assay: Inhibition of Plk3 polo-box domain (unknown origin) assessed as inhibition of 5-carboxyfluorescein-Ahx-GPLATS-pT-PKNG binding after 10 mins by fluorescence polarization assay
Chain of Serine/threonine-protein kinase PLK3 (Homo sapiens) (Q9H4B4 whole entry, looked up, the tested form may be a part): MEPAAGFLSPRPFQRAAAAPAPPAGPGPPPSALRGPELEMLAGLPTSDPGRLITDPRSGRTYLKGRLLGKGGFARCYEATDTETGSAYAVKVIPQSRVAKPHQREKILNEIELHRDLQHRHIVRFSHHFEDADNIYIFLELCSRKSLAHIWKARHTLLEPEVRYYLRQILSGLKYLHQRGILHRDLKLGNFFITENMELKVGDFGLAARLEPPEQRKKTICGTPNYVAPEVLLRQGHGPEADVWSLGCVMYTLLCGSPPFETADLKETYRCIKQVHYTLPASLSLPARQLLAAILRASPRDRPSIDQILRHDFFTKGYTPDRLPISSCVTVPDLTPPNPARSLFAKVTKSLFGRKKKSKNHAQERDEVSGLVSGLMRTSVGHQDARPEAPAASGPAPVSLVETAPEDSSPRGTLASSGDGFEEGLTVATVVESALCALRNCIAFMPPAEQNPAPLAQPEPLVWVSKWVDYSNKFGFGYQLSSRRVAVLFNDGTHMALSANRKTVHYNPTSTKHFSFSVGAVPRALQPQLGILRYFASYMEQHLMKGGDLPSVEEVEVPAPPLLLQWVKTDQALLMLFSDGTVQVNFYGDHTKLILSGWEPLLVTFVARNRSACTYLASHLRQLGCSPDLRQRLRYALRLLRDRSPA

[2] = target: Serine/threonine-protein kinase PLK2 (Homo sapiens) (UniProt Q9NYY3); assay: Inhibition of Plk2 polo-box domain (unknown origin) assessed as inhibition of 5-carboxyfluorescein-Ahx-GPMQTS-pT-PKNG binding after 10 mins by fluorescence polarization assay
Chain of Serine/threonine-protein kinase PLK2 (Homo sapiens) (Q9NYY3 whole entry, looked up, the tested form may be a part): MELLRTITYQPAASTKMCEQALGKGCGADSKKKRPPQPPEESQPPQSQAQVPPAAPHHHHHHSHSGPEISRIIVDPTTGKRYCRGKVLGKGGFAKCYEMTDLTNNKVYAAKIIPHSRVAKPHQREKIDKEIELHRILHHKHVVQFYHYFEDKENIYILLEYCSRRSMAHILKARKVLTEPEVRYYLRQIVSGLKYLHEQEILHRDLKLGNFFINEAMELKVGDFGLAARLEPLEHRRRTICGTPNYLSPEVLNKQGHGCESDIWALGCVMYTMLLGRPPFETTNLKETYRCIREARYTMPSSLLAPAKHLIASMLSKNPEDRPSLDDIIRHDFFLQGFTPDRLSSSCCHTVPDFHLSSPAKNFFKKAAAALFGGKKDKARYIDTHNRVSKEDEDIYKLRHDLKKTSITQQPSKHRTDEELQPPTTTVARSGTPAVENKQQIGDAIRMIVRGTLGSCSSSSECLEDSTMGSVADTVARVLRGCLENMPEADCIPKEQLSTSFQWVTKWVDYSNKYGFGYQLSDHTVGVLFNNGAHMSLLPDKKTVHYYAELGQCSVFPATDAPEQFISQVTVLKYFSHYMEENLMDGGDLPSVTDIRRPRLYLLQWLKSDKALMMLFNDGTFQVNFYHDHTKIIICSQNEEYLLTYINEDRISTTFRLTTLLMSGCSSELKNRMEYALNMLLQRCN

[3] = target: Serine/threonine-protein kinase PLK1 (Homo sapiens) (UniProt P53350); assay: Inhibition of HA-EGFP tagged Plk1 polo-box domain (unknown origin) expressed in 293A cells assessed as inhibition of biotin-p-T78 binding up to 150 uM after 1 hr by ELISA; type: cell-based
Chain of Serine/threonine-protein kinase PLK1 (Homo sapiens) (P53350 whole entry, the tested form may be a part): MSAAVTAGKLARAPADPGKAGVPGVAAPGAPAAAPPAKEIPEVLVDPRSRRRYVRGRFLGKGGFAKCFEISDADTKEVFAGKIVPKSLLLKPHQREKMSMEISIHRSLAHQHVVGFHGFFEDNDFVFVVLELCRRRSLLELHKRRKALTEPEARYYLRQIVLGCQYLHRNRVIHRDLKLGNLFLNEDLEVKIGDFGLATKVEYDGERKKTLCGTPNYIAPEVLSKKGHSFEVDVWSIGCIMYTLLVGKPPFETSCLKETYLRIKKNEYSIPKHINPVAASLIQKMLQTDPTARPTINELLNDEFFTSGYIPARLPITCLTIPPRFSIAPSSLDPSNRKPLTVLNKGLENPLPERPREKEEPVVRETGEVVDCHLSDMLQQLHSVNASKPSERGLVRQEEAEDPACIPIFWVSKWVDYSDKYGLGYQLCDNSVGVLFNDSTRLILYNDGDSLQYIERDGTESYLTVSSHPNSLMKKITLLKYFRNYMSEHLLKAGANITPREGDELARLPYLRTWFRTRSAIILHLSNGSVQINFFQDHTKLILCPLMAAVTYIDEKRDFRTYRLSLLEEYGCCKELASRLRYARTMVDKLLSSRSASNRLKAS

Row | inhibition [1] | inhibition [2] | inhibition [3] | Structure (SMILES)
1 | inactive | inactive | – | CC(=O)n1cc(CCNC(=O)CCCCCN2CC(=O)N[C@@H](CC(C)C)C(=O)N[C@@H](Cc3c[nH]cn3)C(=O)N[C@@H](CO)C(=O)N[C@@H]([C@@H](C)OP(=O)(O)O)C(=O)N[C@@H](C(N)=O)CSCC2=O)c2ccccc21
2 | – | – | Active | CC(=O)n1cc(CCNC(=O)CCN2CC(=O)N[C@@H](CC(C)C)C(=O)N[C@@H](Cc3c[nH]cn3)C(=O)N[C@@H](CO)C(=O)N[C@@H]([C@@H](C)OP(=O)(O)O)C(=O)N[C@@H](C(N)=O)CSCC2=O)c2ccccc21
3 | – | – | Active | CC(=O)n1cc(CCNC(=O)CCCCN2CC(=O)N[C@@H](CC(C)C)C(=O)N[C@@H](Cc3c[nH]cn3)C(=O)N[C@@H](CO)C(=O)N[C@@H]([C@@H](C)OP(=O)(O)O)C(=O)N[C@@H](C(N)=O)CSCC2=O)c2ccccc21
4 | inactive | inactive | – | CC(=O)n1cc(CCNC(=O)CCCCCN2CC(=O)N[C@@H](CC(C)C)C(=O)N[C@@H](Cc3cncn3CCCCCCCCc3ccccc3)C(=O)N[C@@H](CO)C(=O)N[C@@H]([C@@H](C)OP(=O)(O)O)C(=O)N[C@@H](C(N)=O)CSCC2=O)c2ccccc21
